Columns and labels:
[1] = target: T1, CXCR2 (Homo sapiens, UniProt P25025); test: PathHunter CXCR2 β-arrestin cell assay (CXCL8 agonist, chemiluminescence); assay type: cell-based; conditions: CXCR2 β-arrestin cells, CXCL8 at EC80
T1 sequence (P25025 1-360): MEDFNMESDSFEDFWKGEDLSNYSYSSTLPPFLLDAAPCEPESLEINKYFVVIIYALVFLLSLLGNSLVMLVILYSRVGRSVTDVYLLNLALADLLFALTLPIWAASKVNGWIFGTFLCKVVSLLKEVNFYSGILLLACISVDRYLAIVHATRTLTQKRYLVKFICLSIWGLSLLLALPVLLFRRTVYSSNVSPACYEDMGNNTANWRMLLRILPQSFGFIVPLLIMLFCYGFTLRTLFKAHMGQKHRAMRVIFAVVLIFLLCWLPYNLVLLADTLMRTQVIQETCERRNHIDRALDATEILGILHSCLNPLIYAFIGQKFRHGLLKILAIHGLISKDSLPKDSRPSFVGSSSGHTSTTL
Method: CXCR2 β-arrestin cells (DiscoverX) of PathHunter® were cultured in standard conditions and inoculated at 20 μL/well to a 384-well white microplate. Before testing, the cells were incubated at 37° C. for an appropriate period of time. The test compound was serially 3-fold diluted in DMSO to give 8 concentrations. Shortly before testing, the serially diluted test samples were further diluted with test buffer to 5 folds of the test concentration. 5 μL of further diluted test samples were added to the cells and the cells were incubated at 37° C. for 30 min. The concentration of vehicle was 1%. 5 μL of 6×EC80 agonist (CXCL8) buffer was then added to the cells, and the cells were incubated at 37° C. for 90 min. The test signal was generated by adding 15 μL (50% v/v) of PathHunter detection mixture reagent in one portion and subsequently incubating the cells for 1 h. The chemiluminescence signal of the microplate was read by a PerkinElmer Envision™ instrument. The biological activities of the test compounds were analyzed by CBIS data analysis kit (ChemInnovation, CA), shown as IC50 values.

[2] = Plasma pharmacokinetic assay in rats; assay type: in vivo, Lewis rats
Method: In this plasma pharmacokinetic assay, 4 male Lewis rats were used and randomized into two groups, with 2 animals in each group. The animals in the first group were given 2 mg/kg of the test compound by intravenous injection and the animals in the second group were given 10 mg/kg of the test compound by intragastric administration. An aqueous solution of 1% DMSO/20% PEG400/79% (HP-b-CD) was used as the vehicle, and the resulting intravenous and intragastric formulations (adjusted to pH=2.78) were clear solutions. Blood samples were collected from saphenous veins of animals at 0.0830, 0.25, 0.5, 1, 2, 4, 6, 8 and 24 hours post-dose for the intravenous injection group, and at 0.25, 0.5, 1, 2, 4, 6, 8 and 24 hours post-dose for the intragastric administration group, with 3 samples at each time point. Plasma samples of the intragastric administration group were cryopreserved at −80° C. and thawed before LC-MS/MS sample analysis. Acetonitrile containing internal standard was added to the thawed plasma samples at a certain ratio to precipitate proteins.
The mixture was centrifuged, and the supernatant was subjected to analysis by LC-MS/MS. An API4000 or 5500 system equipped with ACQUITY UPLC BEH C18 (2.1×50 mm, 1.7 μm) column and ESI positive or negative ion source was used. Each analysis batch included standard samples with 8 concentrations. A curve of the ratio of the peak areas of the test compound to the internal standard (IS) vs. the concentration of the test compound in the plasma sample was plotted, and linear regression was performed using 1/X^2 as weighting coefficient to give a regression equation between the measured response and the concentration. Each analysis batch also included corresponding quality control samples. Data processing was performed using Phoenix 6.3 WinNonlin® to give corresponding PK parameters.

[3] = tested on: PPE-induced SD rat COPD model; test: Therapeutic effect on PPE-induced COPD model; assay type: in vivo, SD rats; conditions: 30 mpk intragastric daily, 4 weeks
Excerpt: • To test the therapeutic effect of the compound on PPE-induced SD rat COPD model. Materials: • Animals: SD rats (male, 160-180 g, 6 weeks age) • Test compounds: porcine pancreatic elastase (Sigma, 0.068 U/μL); Danirixin, compound 1. • Grouping: 1) vehicle group • 2) COPD model group (porcine pancreatic elastase modeling group/solvent group) • 3) PPE+Danirixin (30 mpk) • 4) PPE+compound 1 (10 mpk) • 5) PPE+compound 1 (30 mpk) Procedures: • 1. Modeling: PPE was given retrolingually. • 2. Administration: an aqueous solution of 1% DMSO/20% PEG400/79% (HP-b-CD) was used as the vehicle, and the drugs were administrated intragastrically everyday at a volume of 2 mL/rat for 4 weeks. • 3. Endpoint: On day 29, pulmonary function test, sample collection, and inflammatory cell count in bronchoalveolar lavage fluid.
Bronchoalveolar lavage: The rats were sacrificed, and dissected at the neck. Trachea intubation was performed. 1 mL of cold […] at 4° C. was infused for 3 lavages, and the lavage fluids were combined. The combined lavage fluids were centrifuged at 1200 rpm/min for 5 min, and the supernatant was discarded. The cell suspension was collected;

[4] = tested on: rat COPD model induced by smoking combined with lipopolysaccharide; test: Anti-inflammation effect in rat COPD model induced by smoking combined with lipopolysaccharide; assay type: in vivo, SD rats; conditions: Danirixin 30 mpk; crystalline form A 3-30 mpk
Method: Modeling: the animal model was prepared by exposing the rats to cigarette smoke once daily for 14 days. The rats were smoked for 90 min per day in 2 portions with a break of 10 min. 18 Marlboro cigarettes (with a tar content of 11 mg) were given each time. LPS was administered dropwise via airway at 200 μg/rat once weekly. The administration dropwise was performed on days 6 and 13 of smoke exposure (on the day of LPS administration dropwise, only LPS was administered dropwise for modeling without smoke exposure). • 2. Administration: an aqueous solution of 1% DMSO/20% PEG400/79% (HP-b-CD) was used as the vehicle, and the drugs were administrated intragastrically everyday at a volume of 5 mL/kg for 2 weeks. • 3. Endpoint: On day 15, pulmonary function test, sample collection, inflammatory cell count in bronchoalveolar lavage fluid, pathological analysis, and lung tissue MPO and MMP9 assay were carried out. Procedures of Pulmonary Function Test:
After the last smoking and modeling were finished, pulmonary function was tested for each group of animals on the second day, and pulmonary resistance and compliance were detected under stimulation of methacholine chloride at different doses. The animals were anesthetized by intraperitoneal injection with […] of 25% urethane. After the animals were deeply anesthetized, airway intubation was performed by separating airways, and meanwhile, jugular veins were separated. After breathing stably, the animals were put into a plethysmograph. Drug administration pipelines were inserted into the separated jugular veins. After the animals were in rest state for 1-2 min and the breathing curves were stable, then detection was started. Rats were administered with methacholine chloride at doses of 0, 0.0083, 0.025, 0.075, 0.225, 0.675 mg/kg by jugular vein intubation. The increase in airway resistance and decrease in pulmonary compliance were observed after each administration. After 1-2 min, the parameters returned to near the baseline of the previous concentration of methacholine chloride, and methacholine chloride of the next concentration was injected. After the detection was finished, subsequent alveolar lavage and sample collection were performed.
After the pulmonary function test was finished, the rats were sacrificed by cervical dislocation. After the animals were confirmed dead, the lungs were carefully separated, a lavage syringe was inserted into the main trachea and fixed with 2-0 silk thread. The right lung was ligated. 5 mL of low-temperature normal saline was slowly injected through the lavage syringe. The normal saline was slowly extracted after confirming that the normal saline was injected into the left lung. The operation was repeated twice. By the three lavages, a total of 15 mL of normal saline was injected for lavage. The obtained BALF was injected into a 15 mL centrifuge tube and preserved in a storage box at 4° C. for subsequent BALF cells counting.
After BALF was collected, the right lung which was not infused was taken off and weighted. The two upper lobes of the right lung were put into a cryopreservation tube, frozen in a freezer at −80° C. for later use. Lower lobe tissues were fixed in formalin.
1 mL of homogenously mixed BALF was added into 1 mL of a solution of 1% glacial acetic acid in normal saline. Cells were counted using a hemocytometer. The remaining lavage fluid was centrifuged at 1500 r/min for 10 min at 4° C. to give a cell mass. The cells were resuspended in 200 μL of normal saline, uniformly coated on a glass slide and stained by Wright-Giemsa stain. Macrophages, neutrophils and lymphocytes in a total of 200 cells were counted under a microscope, and the proportions of the cells was calculated. For lavage fluid collection, animals failing the lavage fluid collection were not summarized. […]

| SMILES | IC50 [1] [nM] | half-life ([2]; rat, plasma, po, male Lewis rats, 10 mg/kg intragastric, read-out: Intragastric administration Half life (T1/2) (converted)) [h] | Cmax ([2]; rat, plasma, po, male Lewis rats, 10 mg/kg intragastric, read-out: Intragastric administration Maximum plasma concentration (Cmax)) [µM] | AUC ([2]; rat, plasma, po, male Lewis rats, 10 mg/kg intragastric, read-out: Intragastric administration Plasma exposure (AUC)) [µM·h] | clearance ([2]; rat, plasma, male Lewis rats, 2 mg/kg intravenous, read-out: Intravenous injection Clearance (CL)) [mL/min/kg] | Pharmacokinetic properties (in words) ([2]; rats) | Count of immune inflammatory cells (neutrophils, macrophages, lymphocytes) in bronchoalveolar lavage fluid [3] | Anti-inflammatory effect (summary) [4] |
| --- | --- | --- | --- | --- | --- | --- | --- | --- |
| O=C(Nc1ccc(Cl)c(S(=O)(=O)[C@H]2CCCNC2)c1O)N[C@@H]1CCCc2cc(C(F)(F)F)oc21 [Compound 1] | 22 | 4.22 | 3 | 31.3 | 5.07 | good pharmacokinetic properties | – | – |
| Cc1c(F)cccc1NC(=O)Nc1ccc(Cl)c(S(=O)(=O)[C@H]2CCCNC2)c1O [Danirixin, reference compound] | – | – | – | – | – | – | significantly reduced | significant anti-inflammatory effect |

Source: patent publication US12577235B2, “Crystalline form of CXCR2 antagonist and application thereof” (Shenzhen Optimum Biological Technology Co., Ltd, priority 2019, dated 2026)
